Measurements: patent US11161824B2, “Heterocyclic lipoxin analogs and uses thereof” (University College Dublin, National University of Ireland, …, priority 2016, dated 2021)

How the values were obtained:
Assay type in all cases: cell-based
[1] = test system: NFkB; assay: LPS-induced NFkB-driven luciferase activity in THP-1 LUCIA monocytes; details: for reduction of LPS-induced NFkB luciferase activity: 30 min pre-treatment, then 24 h with 50 ng/ml LPS, relative to LPS; for effect on LPS-induced NFkB-driven luciferase activity (in words): doses 10^-12 M to 10^-6 M, 50 ng/ml LPS, 24 h; for potency in reducing LPS-induced NFkB activity, comparison in words: versus LXA4 or other analogues
Procedure: 1×10^5 THP-1 LUCIA monocytes were pre-treated for 30 min with native LXA4 1 (FIG. 1A), imidazole analogues 9 [(1R)-epimer (FIG. 1B) and (1S)-epimer (FIG. 1C)], vehicle or appropriate controls, at increasing doses ranging from 10^−12 M up to 10^−6 M. 10^8 HKLM was used as positive control for NFkB activation. After 24 h from stimulation with 50 ng/ml of LPS, supernatants were collected and NFkB-driven luciferase was measured. (d) Data are expressed as % Relative Luminescence Unit relative to LPS alone ±SEM (n=3), *=p<0.05, **=p<0.01, ***=p<0.001. Graphs display the statistical analysis of the tested compound vs LPS.
(§1) The experiments were based around a model which utilised 1×10^5/ml THP-1 monocytes stably expressing NFkB luciferase reporter gene (LUCIA).
(§2) Anti-inflammatory activity was assessed by testing 10 analogues (6 quinoxalines & 4 isoquinolines) in presence & absence of lipopolysaccharide (LPS). For each analogue, a dose-response from 10^−12 M up to 10^−6 M was performed. The vehicle control corresponded to 0.1% Ethanol. NFkB activator, Heat-Killed Listeria Monocytogenes (HKLM) (10^7 cells/ml), were used as positive control for luciferase induction. 10^−6 M Dexamethasone (Dex) was used as positive control for luciferase inhibition. […] Benzo-lipoxin A4 (BLX) was used as positive control for LXA4 analogues.
A 2-tailed, assuming unequal variance T-test analysis was performed on three independent experiments for each assay. P-values were considered significant when p<0.05. If p<0.05, then * or $; if p<0.01, then ** or $$ or ##; if p<0.001, then *** or $$$ or ###.
Cells were seeded in 96-well plates and pre-treated with increasing doses of LXA4, analogues or controls for 30 min, followed by 24 h of co-incubation with 50 ng/ml LPS. […] (*=statistical analysis vs LPS; $=statistical analysis vs LXA4)

[2] = test system: NFkB; assay: NFkB-driven luciferase activity in resting conditions (absence of LPS) in THP-1 LUCIA monocytes; details: 10^-12 M to 10^-6 M, 24 h
Procedure: 1×10^5 THP-1 LUCIA monocytes were treated for 30 min with native (a) LXA4 1, its stable imidazole-lipoxin analogues (1R)-9 and (1S)-9, vehicle or appropriate controls, at increasing doses ranging from 10^−12 M up to 10^−6 M. After 24 h, supernatants were collected and NFkB-driven luciferase was measured. Data are expressed as % Relative Luminescence Unit relative to LPS alone ±SEM (n=3).
as §1, §2

[3] = test system: Th1 cytokine release; assay: LPS-induced Th1 cytokine release from THP-1 LUCIA monocytes; details: 10^-11, 10^-9 or 10^-7 M; 50 ng/ml LPS 24 h; IL1β, IL6, IL12p70, IFNγ, TNF-α as per figure
Procedure: FIG. 2A-2E are graphs showing imidazole-lipoxin analogues (1R)-9 and (1S)-9 reduce LPS-induced Th1 cytokine release. 1×10^5 THP-1 LUCIA monocytes were pre-treated for 30 min with […], 10^−9 M or 10^−7 M of LXA4 1 and imidazole-lipoxin analogues (1R)-9 and (1S)-9, vehicle or appropriate controls. After 24 h from stimulation with 50 ng/ml of LPS, supernatants were collected and […] (FIG. 2A), IL6 (FIG. 2B), IL12p70 (FIG. 2C), IFNγ (FIG. 2D), and TNF-α (FIG. 2E) levels were measured. Data are expressed as % cytokine secretion relative to LPS alone ±SEM (n=3), *=p<0.05, **=p<0.01, ***=p<0.001.
FIG. 6A-6C are graphs showing that quinoxaline-lipoxin analogue (1R)-CT-4-43 inhibits LPS-induced Th1 cytokine release. 1×10^5 THP-1 LUCIA monocytes were pre-treated for 30 min with […], 10^−9 M or 10^−7 M of LXA4 and quinoxaline-lipoxin analogue (1R)-CT-4-43, vehicle or appropriate controls. After 24 h from stimulation with 50 ng/ml of LPS, supernatants were collected and IL13 (FIG. 6A), IL6 (FIG. 6B), and IFNγ (FIG. 6C) levels were measured. Data are expressed as % cytokine secretion relative to LPS alone ±SEM (n=3), *=p<0.05, **=p<0.01, ***=p<0.001.
FIG. 9A-9C are graphs showing that the isoquinoline-lipoxin analogue RB3 inhibit LPS-induced Th1 cytokine release. 1×10^5 THP-1 LUCIA monocytes were pre-treated for 30 min with 10^−11 M, 10^−9 M or 10^−7 M of LXA4 and isoquinoline-lipoxin analogue (1R)-RB3, vehicle or appropriate controls. After 24 h from stimulation with 50 ng/ml of LPS, supernatants were collected and IL1β(FIG. 9A), IL6 (FIG. 9B), and IL12p70 (FIG. 9C) levels were measured. Data are expressed as % cytokine secretion relative to LPS alone ±SEM (n=3), *=p<0.05, **=p<0.01, ***=p<0.001.

Row | Compound | effect on LPS-induced NFkB-driven luciferase activity (in words) [1] | potency in reducing LPS-induced NFkB activity, comparison in words [1] | reduction of LPS-induced NFkB luciferase activity ([1]; 1 uM) | NFkB-driven luciferase activity in resting conditions (in words) [2] | other results
1 | CCCCCCC[C@@H](O)c1nc2ccccc2nc1/C=C/[C@@H](O)[C@@H](O)CCCC(=O)OC [(1R)-CT4-63, Methyl (5S,6R,E)-5,6-dihydroxy-8-(3-((R)-1-hydroxyoctyl)quinoxalin-2-yl)oct-7-enoate] | attenuates | not significantly different from LXA4 |  |  | reduction of LPS-induced NFkB luciferase activity ([1]; 1 nM): 22.8±7.4%; concentration at which maximal inhibition of LPS-induced NFkB activity is reached ([1]; dose-response 10^-12 M to 10^-6 M): 1 nM
2 | CCC[C@@H](O)c1nc2ccccc2nc1/C=C/[C@@H](O)[C@@H](O)CCCC(=O)OC [(1R)-CT4-68, Methyl (5S,6R,E)-5,6-dihydroxy-8-(3-((R)-1-hydroxybutyl)quinoxalin-2-yl)oct-7-enoate] | attenuates |  | 28.9±6.6% |  | 
3 | CCCCC[C@@H](O)c1nc(/C=C/[C@@H](O)[C@@H](O)CCCC(=O)OC)cc2ccccc12 [(1R)-DM-163-RB3] | attenuates | most potent |  | did not elicit | reduction of LPS-induced NFkB luciferase activity ([1]; 10 nM): 35.4±6.1%; reduction of LPS-induced NFkB luciferase activity ([1]; 100 nM): 37.9±9.7%; effect on LPS-induced Th1 cytokine release (in words) [3]: inhibit
4 | CCCCC[C@@H](O)c1ncc(/C=C/[C@@H](O)[C@@H]2CCCC(=O)O2)c2ccccc12 [(1S)-DM-178-SB4, (S)-6-((R,E)-1-Hydroxy-3-(1-((R)-1-hydroxyhexyl)isoquinolin-4-yl)allyl)tetrahydro-2H-pyran-2-one] | attenuates |  | 26.8±8.7% |  | 
5 | CCCCC[C@@H](O)c1c(/C=C/[C@@H](O)[C@@H](O)CCCC(=O)OC)nc(C)n1C [KG-5-22, (5S,6R,E)-methyl 5,6-dihydroxy-8-(5-((R)-1-hydroxyhexyl)-1,2-dimethyl-1H-imidazol-4-yl)oct-7-enoate] | attenuating |  |  | did not induce | reduction of LPS-induced NFkB luciferase activity ([1]; 1 pM): 43.7±8.9%; reduction of LPS-induced NFkB luciferase activity ([1]; 10 pM): 41.3±9.0%; NFkB-driven luciferase activity in resting conditions (in words) ([2]; listed as KG5-22): does not elicit
